Data on 56 compounds can be found in article PMC6792352, “Limited Chemical Structural Diversity Found to Modulate Thyroid Hormone Receptor in the Tox21 Chemical Library” (Environmental Health Perspectives, 2019).

The nature of the data set: in vitro. Particulars: rat, gh3-tre-luc cells.

Counter-ions that a name gives are not always drawn. A value given as a limit tells only on which side of the number the result lay.

As for `O=C(O)CCCCCCNC1c2ccccc2CCc2ccccc21` [Amineptine], the 50% cytotoxic concentration (CC50) at 24 h (AC50 (uM) modified / 1000, Tox21_110001=Tox21_113313, viability, 1 nM T3 present, 24 h) is greater than 50 µM.

Regarding `CCCCCCCCCC(=O)O` [Decanoic acid], under “AC50 (uM) modified / 1000”, the CC50 at 24 h is greater than 50 µM.

In turn, `COC(=O)[C@H]1CC[C@H](C(=O)OC)CC1` [Dimethyl trans-cyclohexane-1,4-dicarboxylate] showed a CC50 at 24 h (AC50 (uM) modified / 1000) greater than 90 µM.

For `CC1CCCCC1NC(=O)Nc1ccccc1` (centres unmarked) [Siduron], the CC50 at 24 h (AC50 (uM) modified / 1000) is greater than 90 µM.

Under “AC50 (uM) modified / 1000”, `C=CCCCCCCCCC(=O)O` [10-Undecenoic acid] registered a CC50 at 24 h greater than 90 µM.

With `CCCCCCCCCCCCCCCCCCNC(=O)OC1CCN(C(=O)OC[C@H](COC(=O)N(Cc2cccc[n+]2CC)C(=O)c2ccccc2OC)OC)CC1` [Minopafant], the CC50 at 24 h (AC50 (uM) modified / 1000) was determined as 13.6 µM.

As for `O=S(=O)(O)c1ccccc1/C=C/c1ccc(-c2ccc(/C=C/c3ccccc3S(=O)(=O)O)cc2)cc1` [Disodium 4,4'-bis(2-sulfostyryl)biphenyl], the cytotoxic concentration (CC50) at 24 h (AC50 (uM) modified / 1000) is greater than 80 µM.

Take `C=CCc1cc(S(=O)(=O)c2ccc(O)c(CC=C)c2)ccc1O` [4,4'-Sulfonylbis[2-(prop-2-en-1-yl)phenol]]: the CC50 at 24 h (AC50 (uM) modified / 1000) amounted to 49.1 µM.

Where the note is “AC50 (uM) modified / 1000, Tox21_110001=Tox21_110520, viability, 1 nM T3 present, 24 h”, `C[C@]12C[C@H]3S[C@H]3C[C@@H]1CC[C@@H]1[C@@H]2CC[C@]2(C)[C@@H](O)CC[C@@H]12` [Epitiostanol] came in with a CC50 at 24 h greater than 20 µM.

In turn, `[H]/N=C(\N/C(=N/[H])Nc1ccc(Cl)cc1)NC(C)C` [Proguanil hydrochloride] yielded a CC50 at 24 h (AC50 (uM) modified / 1000) greater than 20 µM.

`OC[C@H]1O[C@@H](O[C@@H]2[C@@H](CO)OC(O)(CO)[C@H]2O)[C@H](O)[C@@H](O)[C@H]1O` (mixture of isomers) [Lactulose] showed a CC50 at 24 h (AC50 (uM) modified / 1000) greater than 50 µM.

The compound `CCC(C(=O)OCCOCCN(CC)CC)c1ccccc1` (centres unmarked) [Butamirate citrate] registered a CC50 at 24 h (AC50 (uM) modified / 1000) greater than 50 µM.

As to `CC(Cc1ccccc1)NC=O` (centres unmarked) [Formetorex], the CC50 at 24 h (AC50 (uM) modified / 1000, Tox21_110001=Tox21_111794, viability, 1 nM T3 present, 24 h) was greater than 50 µM.

With `Nc1cccc(N)c1` [1,3-Benzenediamine dihydrochloride], the CC50 at 24 h (AC50 (uM) modified / 1000) is greater than 90 µM.

As to `O=[N+]([O-])c1ccccc1` [Nitrobenzene], under “AC50 (uM) modified / 1000”, the CC50 at 24 h was greater than 90 µM.

As for `CC(=O)OC1C2(C)CCC(C2)C1(C)C` (centres unmarked) [Fenchyl acetate], where the note is “AC50 (uM) modified / 1000”, the CC50 at 24 h was greater than 90 µM.

Compound `CC(C)c1ccc(S(=O)(=O)O)cc1` [4-Isopropylbenzenesulfonic acid] showed a half-maximal cytotoxic concentration (CC50) at 24 h (AC50 (uM) modified / 1000) greater than 90 µM.

As for `NC(=O)CC[C@@H]1NC(=O)[C@H](Cc2ccccc2)NC(=O)[C@H](Cc2ccc(O)cc2)NC(=O)CCSSC[C@@H](C(=O)N2CCC[C@H]2C(=O)N[C@H](CCCN=C(N)N)C(=O)NCC(N)=O)NC(=O)[C@H](CC(N)=O)NC1=O` [Desmopressin], under “AC50 (uM) modified / 1000”, the CC50 at 24 h was greater than 50 µM.

`N#CC(O)c1ccccc1` (stereo not drawn) [alpha-Hydroxybenzeneacetonitrile] had a CC50 at 24 h (AC50 (uM) modified / 1000, Tox21_110001=Tox21_200804, viability, 1 nM T3 present, 24 h) greater than 90 µM.

With `C[C@]12C=CC(=O)C=C1CC[C@H]1[C@@H]3C[C@@H](O)[C@](O)(C(=O)CO)[C@@]3(C)C[C@H](O)[C@@]12F` [Triamcinolone], the 50% cytotoxic concentration (CC50) at 24 h (AC50 (uM) modified / 1000) is greater than 90 µM.

`CCCC(C)C(=O)O` (centres unmarked) [2-Methylpentanoic acid] registered a cytotoxic concentration (CC50) at 24 h (AC50 (uM) modified / 1000) greater than 90 µM.

`CCN(CC)CC(=O)Nc1c(C)cc(C)cc1C` [Trimecaine monohydrochloride] registered a CC50 at 24 h (AC50 (uM) modified / 1000) greater than 50 µM.

Consider `C[C@]12CCC(=O)C[C@@H]1CC[C@@H]1[C@@H]2CC[C@@]2(C)[C@H]1CC[C@]2(C)O` [Mestanolone], for which the CC50 at 24 h (AC50 (uM) modified / 1000, Tox21_110001=Tox21_113424, viability, 1 nM T3 present, 24 h) was greater than 50 µM.

`CC(=O)OCC1=C(C(=O)O)N2C(=O)[C@@H](NC(=O)CSc3ccncc3)[C@H]2SC1` [Cephapirin sodium] gave a CC50 at 24 h (AC50 (uM) modified / 1000) greater than 50 µM.

Under “AC50 (uM) modified / 1000, Tox21_110001=Tox21_201304, viability, 1 nM T3 present, 24 h”, `CCCCCCCCCCCC#N` [Dodecanenitrile] came in with a CC50 at 24 h greater than 90 µM.

Compound `CCCCSCCCC` [Dibutyl sulfide] returned a CC50 at 24 h (AC50 (uM) modified / 1000) greater than 90 µM.

`CCOC(=O)[C@H](CCc1ccccc1)N[C@H]1CCCN2CCC[C@@H](C(=O)O)N2C1=O` [Cilazapril] showed a CC50 at 24 h (AC50 (uM) modified / 1000) greater than 50 µM.

`C=CCCCCCCCCCCCC` [1-Tetradecene] yielded a half-maximal cytotoxic concentration (CC50) at 24 h (AC50 (uM) modified / 1000) greater than 90 µM.

Under “AC50 (uM) modified / 1000”, `CC1=C(/C=C/C(C)=C/C=C/C(C)=C/C=C/C=C(C)/C=C/C=C(C)/C=C/C2=C(C)CCCC2(C)C)C(C)(C)CCC1` [beta-Carotene] had a CC50 at 24 h greater than 50 µM.

On to `c1csc(SSc2cccs2)c1` [2-Thienyl disulfide], for which, under “AC50 (uM) modified / 1000”, the CC50 at 24 h is greater than 90 µM.

For `NC(=O)C(Cl)Cl` [2,2-Dichloroacetamide], the CC50 at 24 h (AC50 (uM) modified / 1000, Tox21_110001=Tox21_200050, viability, 1 nM T3 present, 24 h) is greater than 90 µM.

Regarding `CN1C(C)(C)CC(O)CC1(C)C` [1,2,2,6,6-Pentamethylpiperidin-4-ol], the CC50 at 24 h (AC50 (uM) modified / 1000) is greater than 90 µM.

For the compound `Cc1ccccc1S(N)(=O)=O` [o-Toluenesulfonamide], the CC50 at 24 h (AC50 (uM) modified / 1000) was greater than 90 µM.

In turn, `CCc1ccc(Br)cc1` [1-Bromo-4-ethylbenzene] displayed a CC50 at 24 h (AC50 (uM) modified / 1000) greater than 90 µM.

In the case of `CCCN1CCC[C@@H]2Cc3nc(N)ncc3C[C@H]21` [Quinelorane], the CC50 at 24 h (AC50 (uM) modified / 1000) was greater than 50 µM.

Where the note is “AC50 (uM) modified / 1000, Tox21_110001=Tox21_200689, viability, 1 nM T3 present, 24 h”, `C[C@]12CC[C@H]3[C@@H](CCC4=CC(=O)CC[C@@]43C)[C@@H]1CC[C@@H]2O` [Testosterone] returned a CC50 at 24 h greater than 90 µM.

Take `NC(=O)c1cccc([N+](=O)[O-])c1` [3-Nitrobenzamide]: for the setting “AC50 (uM) modified / 1000”, the CC50 at 24 h was greater than 90 µM.

Take `CC(=O)Oc1ccc(C2(c3ccc(OC(C)=O)cc3)Oc3ccccc3NC2=O)cc1` [Bisoxatin acetate]: the 50% cytotoxic concentration (CC50) at 24 h (AC50 (uM) modified / 1000) turned out to be 4.41 µM.

As for `CCOc1cc(C(C)(C)C)ccc1C1COC(c2c(F)cccc2F)=N1` (centres unmarked) [Etoxazole], under “AC50 (uM) modified / 1000”, the CC50 at 24 h was determined as 17.5 µM.

As for `CCOP(=S)(OCC)Oc1ccc([N+](=O)[O-])cc1` [Parathion], the 50% cytotoxic concentration (CC50) at 24 h (AC50 (uM) modified / 1000) is greater than 90 µM.

Under “AC50 (uM) modified / 1000”, `C[C@H]1C[C@H]2[C@@H]3CCC4=CC(=O)C=C[C@]4(C)[C@@]3(F)[C@@H](O)C[C@]2(C)[C@@]1(O)C(=O)CCl` [Clobetasol] showed a half-maximal cytotoxic concentration (CC50) at 24 h greater than 50 µM.

`Cc1cc(O)c2c(c1)O[C@@]1(C)CC[C@H]3C(C)(C)CCC[C@]34CO[C@@H]2[C@H]41` [Siccanin]: where the note is “AC50 (uM) modified / 1000”, it took 15.9 µM to reach half-maximal cytotoxicity (CC50 at 24 h).

In turn, `Cc1ncc(CO)c(C=O)c1O` [Pyridoxal] gave a CC50 at 24 h (AC50 (uM) modified / 1000) greater than 50 µM.

Where the note is “AC50 (uM) modified / 1000”, `CCOC(=O)c1ccc(OC(=O)CCCCCNC(=N)N)cc1` [Gabexate mesilate] returned a CC50 at 24 h greater than 20 µM.

`Nc1nnnn1-c1ccccc1` [Fenamol] yielded a cytotoxic concentration (CC50) at 24 h (AC50 (uM) modified / 1000) greater than 50 µM.

Compound `O=S(=O)(NS(=O)(=O)C(F)(F)F)C(F)(F)F` [Triethylsulfonium bis(trifluoromethanesulfonyl)imide] returned a CC50 at 24 h (AC50 (uM) modified / 1000) greater than 90 µM.

For `O=C(O)c1ccccc1-c1ccc(C(F)(F)F)cc1` [Xenalipin], the CC50 at 24 h (AC50 (uM) modified / 1000) was greater than 50 µM.

In turn, `COc1ccc(CN(CCN(C)C)c2ncccn2)cc1` [Thonzylamine hydrochloride] returned a CC50 at 24 h (AC50 (uM) modified / 1000) greater than 50 µM.

With `COc1c(C)c2c(c(O)c1C/C=C(\C)CCC(=O)O)C(=O)OC2` [Mycophenolic acid], half-maximal cytotoxicity (AC50 (uM) modified / 1000) (CC50 at 24 h) was put at 1.55 µM.

Under “AC50 (uM) modified / 1000”, `CC1(C)SC(C)(C)SC(C)(C)S1` [Trithioacetone] gave a CC50 at 24 h greater than 90 µM.

`CC(C(=O)O)c1ccc(C(=O)c2ccccc2)s1` (centres unmarked) [Tiaprofenic acid] gave a CC50 at 24 h (AC50 (uM) modified / 1000) greater than 20 µM.

Under “AC50 (uM) modified / 1000”, `CN(C)CCN1C(=O)c2ccccc2N(C)c2ccccc21` [Dibenzepin hydrochloride] showed a CC50 at 24 h greater than 50 µM.

As to `CCOP(=O)(OCC)OP(=O)(OCC)OCC` [Tetraethyl pyrophosphate], the CC50 at 24 h (AC50 (uM) modified / 1000, Tox21_110001=Tox21_301172, viability, 1 nM T3 present, 24 h) is greater than 90 µM.

`CCCCCCCCCCCCCCCCCCCCCCO` [1-Docosanol] displayed a CC50 at 24 h (AC50 (uM) modified / 1000) greater than 50 µM.

Turning to `O=[N+]([O-])c1cc(Cl)c(Cl)cc1Cl` [2,4,5-Trichloronitrobenzene], the CC50 at 24 h (AC50 (uM) modified / 1000, Tox21_110001=Tox21_200937, viability, 1 nM T3 present, 24 h) is greater than 90 µM.

Consider `Nc1nc(N)c(-c2ccccc2)s1` [Amiphenazole], for which the cytotoxic concentration (CC50) at 24 h (AC50 (uM) modified / 1000) was greater than 50 µM.
